Patent US7005546B2, “Acetamidobenzamide compounds for neurodegenerative disorders” (Renovis, Inc., priority 1995, dated 2006)

How the values were obtained:
[1] = tested on: MPTP-induced reduction in striatal dopamine, C57BL/6J mice; assay: Dopamine depletion studies (MPTP mouse model of Parkinson's disease); format: in vivo; conditions: for preventing dopamine depletion following MPTP challenge (in words): Table 1 conditions, 30 mg/kg p.o.
Procedure: These findings have led to the development of an assay for agents effective in treating dopamine-associated neurodegenerative disorders, such as Parkinson's disease. In this assay, test animals are given an amount of MPTP adequate to severely depress their dopamine levels. Test compounds are administered to determine if they are capable of preventing the loss of dopamine in the test animals. To the extent that dopamine levels are retained, a compound can be considered to be an effective agent for slowing or delaying the course of neurodegenerative disease, e.g., Parkinson's disease. C57BL/6J mice were pretreated with either vehicle (1% methyl cellulose) or a drug (p.o.) 30 min before MPTP. MPTP was dissolved in isotonic saline (0.9%) and given subcutaneously as a single dose of 15 mg free base/kg body weight to produce a reduction in striatal dopamine to about 0.5 nanomoles/mg protein. Groups of mice (n=8–10 per group) received either vehicle plus saline, vehicle plus MPTP or drug plus MPTP. Seventy two hours after receiving MPTP, mice were sacrificed using cervical dislocation and the striata were excised. The tissue was homogenized in 0.4 N perchloric acid, centrifuged, and the supernatant analyzed by high performance liquid chromatography/electro-chemical detection (HPLC/ED) for dopamine levels. Supernatants were stored in a −90° C. freezer between the time of collection and analysis. The drugs were combined with methyl cellulose and were homogenized in water for dosing. The dosage amount ranged from 10 to 50 mg/kg for CPI1160, CPI1189 and CPI1234, and from 50 to 100 mg/kg for CPI1020.

[2] = In vivo biotransformation of orally administered CPI1020, blood of mice; conditions: mice given CPI1020 orally
Description: (§1) Commonly owned U.S. patent application Ser. No. 08/227,777, referred to above, discloses several benzamides useful in treating neurodegenerative diseases based on their protective action in the MPTP mouse model of Parkinson's disease. […] This compound is likely formed in the body by reduction of the ring nitro of CPI1020 to an amino moiety (CPI1160) followed by acetylation of the amino function.

[3] = In vivo biotransformation of orally administered CPI1020, blood of rats; conditions: rats given CPI1020 orally
Description: as §1

Row | melting point [°C] | in vivo biotransformation product of CPI1020 in blood [2] | in vivo biotransformation product of CPI1020 in blood [3] | Structure (SMILES) | protection from the neurotoxic action of MPTP (% of control) ([1]; 50 mg/kg p.o., 15 mg/kg MPTP model) | preventing dopamine depletion following MPTP challenge (in words) [1]
1 |  |  |  | CC(C)(C)NC(=O)c1ccc([N+](=O)[O-])cc1 [CPI1020, N-tert-butyl-4-nitrobenzamide, reference compound] | 65 % of control | 
2 | 125 to 127 |  |  | CC(C)(C)NC(=O)c1ccc(N)cc1 [CPI1160, N-tert-butyl-4-aminobenzamide] |  | effective
3 | 194 to 195 |  |  | CC(=O)Nc1cccc(C(=O)NC(C)(C)C)c1 [CPI1234, N-tert-butyl-3-acetamidobenzamide] |  | effective
4 |  | found in the blood | found in the blood | CC(=O)Nc1ccc(C(=O)NC(C)(C)C)cc1 [CPI1189, N-tert-butyl-4-acetamidobenzamide] |  | effective
